Experiment [1] concerns the target T1, ERK3 kinase domain (Homo sapiens, UniProt Q16659).
T1 construct: The kinase domain of ERK3 (M9-I327) was subcloned into pNIC28–Bsa4; His6 (N, cleaved yes); made in house; host or cells: E. coli (co-expressed with lambda phosphatase)
Description: Mass spectrometry analyses of covalent adducts (intact mass, chymotrypsin digestion). Format: binding. To be noted: kinase and inhibitor at 1:1 ratio, 30 min, room temperature. As to the method:
The protein was purified using C8 stage tips, and the intact mass was analysed using LC-ESI TOF (Agilient, Santa Clara, CA, USA) and Bioconfirm software (Agilient). Chymotrypsin digestion followed by mass spectrometry analysis was performed to identify the residue that forms a covalent bond with the inhibitors. […] The protein was subsequently precipitated by 50% […], and the resulting pellet was washed twice with cold acetone. Chymotrypsin (Sigma Aldrich) digestion was performed in 50 mM (NH4)2CO3 overnight at 37 °C. The solution after proteolysis were spotted in quadruplets onto the 4-chloro-α-cyanocinnamic acid matrix (Sigma Aldrich; 3 mg mL^−1 in TFA-acidified 50% acetonitrile), and the m/z ratios were analysed on a Thermo Fisher MALDI-LTQ Orbitrap XL spectrometer.

Experiment [2] addresses T2, Full length ERK3 (NanoLuc fusion) (Homo sapiens, UniProt Q16659).
T2 construct: Full length ERK3 was cloned into pFC32K (Promega, Madison, WI, USA); expressed in transfected cells; host or cells: HEK293T
Description: Cell-based NanoBRET assay (tracer displacement) in HEK293T cells. Particulars: for IC50: Figure 2F, HEK293T cells, 0.25 µM Tracer K5, 2 h, averaged over two replicates. As to the method: Full length ERK3 was cloned into pFC32K (Promega, Madison, WI, USA) for the expression of an […] NanoLuc fusion, and the plasmid was transfected into HEK293T cells cultured in DMEM (Gibco) supplemented with 10% fetal bovine serum (Gibco) and penicillin/streptamycin (Gibco, Thermo Fisher Scientific, Waltham, MA, USA). NanoBRET assays were performed using protocol published previously. Briefly, after transfection and 20 h incubation, cells were harvested and subsequently resuspended in OptiMEM (Gibco). […] BRET luminescence (450 nm for donor emission and 610 nm for BRET signal) was measured using PHERAstar FSX plate reader (BMG Labtech, Ortenberg, Germany). Milli-BRET units (mBU) were calculated as a ratio between the BRET signal and the overall measured luminescence. A dose–response fitting was applied, and the corresponding IC50 values were calculated in Prism software. For the single concentration screening, the normalized BRET values were calculated from the ratio between the BRET signals of the tested inhibitor and that of the DMSO control.

The target in experiment [3] is T1, ERK3 kinase domain. As to the kind of experiment: Isothermal titration calorimetry (ITC). Format: binding. Particulars: Figure 2E; 15 °C; averaged over two replicates; read-out: ITC dissociation constant Kd. Here is the method: The integrated heat of titration was calculated and fitted into an independent binding model using NanoAnalyzer software. Thermodynamic parameters, the dissociation constant (Kd), and stoichiometry (n) were an average over duplicates.
For orientation: In ITC the heat of successive injections is recorded.

The target in experiment [4] is T1, ERK3 kinase domain. As to the kind of experiment: Melting temperature assay (differential scanning fluorimetry, DSF). Particulars: Table S3; DSF assay values shown for comparison; read-out: ΔTm ERK3. Format: binding. Here is the method: The ERK3 kinase domain at 2 µM in 10 mM HEPES pH 7.5 and 500 mM NaCl was mixed with 10 µM inhibitors and SyPRO Orange at 1:1000 dilution. After 10 min incubation at room temperature, the fluorescence signal, which increases upon the temperature-dependent unfolding of ERK3 protein, was measured using Mx3005p real-time PCR machine (Stratagene, San Diego, CA, USA). The ∆Tm shifts were calculated using protocol described previously.
For orientation: DSF heats the sample and reads unfolding from a dye or from intrinsic fluorescence.

Structures are written as SMILES.

T1 sequence (Q16659 9-327): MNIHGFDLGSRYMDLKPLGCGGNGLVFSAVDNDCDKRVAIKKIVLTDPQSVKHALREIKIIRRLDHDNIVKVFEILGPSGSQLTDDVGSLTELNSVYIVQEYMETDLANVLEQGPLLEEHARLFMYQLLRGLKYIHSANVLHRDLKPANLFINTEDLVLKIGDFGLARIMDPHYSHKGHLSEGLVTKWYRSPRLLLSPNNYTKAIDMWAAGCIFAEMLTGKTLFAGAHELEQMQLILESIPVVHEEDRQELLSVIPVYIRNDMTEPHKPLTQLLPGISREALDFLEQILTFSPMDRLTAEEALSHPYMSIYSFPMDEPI
T2 sequence (Q16659 whole entry, the tested form may be a part): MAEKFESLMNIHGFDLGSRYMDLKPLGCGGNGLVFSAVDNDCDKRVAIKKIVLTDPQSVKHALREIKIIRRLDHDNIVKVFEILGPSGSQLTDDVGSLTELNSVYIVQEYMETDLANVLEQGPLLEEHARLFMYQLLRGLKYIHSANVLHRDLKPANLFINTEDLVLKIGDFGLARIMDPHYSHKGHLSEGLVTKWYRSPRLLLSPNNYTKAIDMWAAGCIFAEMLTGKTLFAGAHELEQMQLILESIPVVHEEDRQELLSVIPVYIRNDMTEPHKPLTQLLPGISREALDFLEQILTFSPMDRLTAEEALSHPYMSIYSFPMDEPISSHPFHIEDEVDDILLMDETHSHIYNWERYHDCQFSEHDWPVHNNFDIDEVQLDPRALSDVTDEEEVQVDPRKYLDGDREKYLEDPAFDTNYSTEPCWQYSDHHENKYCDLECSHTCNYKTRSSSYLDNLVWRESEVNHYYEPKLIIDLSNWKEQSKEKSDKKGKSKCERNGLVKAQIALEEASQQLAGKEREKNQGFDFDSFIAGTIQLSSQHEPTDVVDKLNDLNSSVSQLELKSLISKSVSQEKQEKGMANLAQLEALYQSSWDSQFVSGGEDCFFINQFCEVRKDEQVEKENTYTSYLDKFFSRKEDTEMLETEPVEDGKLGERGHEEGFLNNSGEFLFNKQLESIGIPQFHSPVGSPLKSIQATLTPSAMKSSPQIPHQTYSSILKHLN

For `CN(C)C/C=C/C(=O)Nc1cccc(C(=O)Nc2ccc(Nc3nccc(-c4cccnc4)n3)cc2)c1` [JNK-IN-7], the “covalent adduct formation (intact mass shift)” value on ERK3 kinase domain [1] is on record as “covalent formation, albeit only partially”. In experiment [2], this compound had an IC50 of 112 ± 23 nM.
In the case of `Nc1cccc(-c2cc3c(Oc4cccc(O)c4)ncnc3[nH]2)c1` [TWS119], the dissociation constant Kd on ERK3 kinase domain [3] worked out at 1930 ± 182 nM. Besides, the ΔTm at 10 µM on ERK3 kinase domain [4] was 0.6 ± 0.2 °C. The same compound showed an IC50 in experiment [2] of 601 ± 29 nM. Besides, the remaining activity at 5 µM in experiment [2] (HEK-293T, 2 h, Table S3, single dose 5 µM, ratio to DMSO control, HEK293T, read-out: Norm.BRET 5 µM) worked out at 54.2 ± 6.4%. For the same compound, the remaining activity at 10 µM in experiment [2] (HEK-293T, 2 h, Table S3, single dose 10 µM, ratio to DMSO control, HEK293T, read-out: Norm.BRET 10 µM) amounted to 28.1 ± 5.5%.

The term IC50 denotes the concentration that inhibits the measured activity by half. A lower IC50 goes with inhibition by little substance. As a reminder, the Kd is the free concentration of one partner at which half of the binding sites on the other are occupied at equilibrium, for simple one-to-one binding. A word on the ΔTm: it is the shift of the melting midpoint relative to a reference.

The record behind these values is publication PMC7663056, “Crystal Structure and Inhibitor Identifications Reveal Targeting Opportunity for the Atypical MAPK Kinase ERK3” (International Journal of Molecular Sciences, 2020).
